From PubChem BioAssay (NCI)
“And” between values parts separate entries of the source, which are not always exact repeats. Equal values may be shown once.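 Interpolation was linear, between the two tested concentrations surrounding the appropriate level; five concentrations were tested over 48 hours in 96-well plates. GI50 marks 50% less growth. TGI denotes the concentration required for complete inhibition of growth.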

Key:
Experiment in all cases: growth of human tumour cells (NCI), 48 h
HCC-2998 colon = system: HCC-2998 colon
HS 578T breast = system: HS 578T breast
HT29 colon = system: HT29 colon
MALME-3M melanoma = system: MALME-3M melanoma
MOLT-4 leukemia = system: MOLT-4 leukemia
NCI/ADR-RES ovarian = system: NCI/ADR-RES ovarian
OVCAR-4 ovarian = system: OVCAR-4 ovarian
SK-MEL-2 melanoma = system: SK-MEL-2 melanoma
SN12C renal = system: SN12C renal
U251 CNS = system: U251 CNS

| Compound | TGI (HCC-2998 colon) | TGI (HS 578T breast) | TGI (HT29 colon) | TGI (MALME-3M melanoma) | TGI (MOLT-4 leukemia) | TGI (NCI/ADR-RES ovarian) | TGI (OVCAR-4 ovarian) | TGI (SK-MEL-2 melanoma) | TGI (SN12C renal) | TGI (U251 CNS) | GI50 (MALME-3M melanoma) | GI50 (U251 CNS) |
| --- | --- | --- | --- | --- | --- | --- | --- | --- | --- | --- | --- | --- |
| CCc1n[nH]c(=O)n1CCCCCCCCCCCCn1c(CC)n[nH]c1=O | > 100 µM | > 100 µM | > 100 µM | 76 µM | 67.7 µM | > 100 µM | > 100 µM | > 100 µM | > 100 µM | 86.4 µM |  |  |
| CN(C)CCNc1ccc2c(=O)n(CCN(C)C)c(=O)n3c4ccc(O)cc4c(=O)c1c23 | 0.186 µM | 0.961 µM | 0.229 µM | 0.45 µM | < 0.01 µM | 9.39 µM | 0.38 µM | 0.602 µM |  | 0.439 µM |  |  |
| O=c1[nH]c(Nc2ccccc2)nc2c1ncn2CC(O)CSCCO (stereo not drawn) | > 100 µM | > 100 µM | > 100 µM | > 100 µM | > 100 µM | > 100 µM | > 100 µM | > 100 µM | > 100 µM | > 100 µM |  |  |
| C#CCNC(CSSCC(N)C(=O)O)C(=O)O (stereo not drawn) | > 100 µM | > 100 µM | > 100 µM | > 100 µM | > 100 µM | > 100 µM | > 100 µM | > 100 µM |  | > 100 µM |  |  |
| O=c1[nH]c2nc3ccccc3c(=O)n2/c1=C/c1ccc(Cl)cc1 | 65.3 µM | 65.2 µM |  | > 100 µM | > 100 µM | > 100 µM | > 100 µM | > 100 µM | > 100 µM | > 100 µM |  |  |
| Cc1ccc2c(c1)-c1nc(N)c(C#N)c(-c3ccc(Cl)cc3)c1CCS2(=O)=O | > 100 µM | > 100 µM | 63.2 µM | > 100 µM |  | > 100 µM | > 100 µM | > 100 µM | > 100 µM | > 100 µM |  |  |
| COC1CC(N)(c2ccccc2)C(O)C(C)O1 (stereo not drawn) | > 100 µM | > 100 µM |  | > 100 µM | > 100 µM | > 100 µM | > 100 µM | > 100 µM | > 100 µM | > 100 µM |  |  |
| CC(=O)NC1C(OCc2ccccc2)OC(CO)C(O)C1OCC(=O)N1CCCC1C(=O)N[C@@H](CCC(=O)NCCCCNc1c2ccccc2nc2cccc([N+](=O)[O-])c12)C(N)=O (stereo partly drawn) | 52.4 µM | 74.8 µM | 50.2 µM | > 100 µM | > 100 µM | > 100 µM | > 100 µM | 32.7 µM | > 100 µM | 48.9 µM |  |  |
| CC1CC[C@@]2(OC1)OC1C[C@H]3[C@@H]4CC=C5CC(OC6OC(CO)C(OC7OC(CO)C(O)C(OC8OCC(O)C(O)C8O)C7OC7OC(CO)C(OC8OC(C)C(OC9OC(C)C(O)C(O)C9O)C(O)C8O)C(O)C7O)C(O)C6O)CCC5(C)[C@H]4CCC3(C)C1[C@@H]2C (stereo partly drawn) | 14.1 µM | 17.8 µM | 15.4 µM | 20.1 µM | 24.7 µM | 17.8 µM | 12.8 µM | 13.5 µM | 17 µM | 16.3 µM |  |  |
| Cc1ccc2nc(SCC(=O)N=Nc3c(O)[nH]c4ccccc34)n(-c3ccccc3)c(=O)c2c1 | 28.6 µM | 46.2 µM | 33.5 µM | 34.7 µM | 33.2 µM | 26.1 µM | 25.9 µM | 13.2 µM | 29.1 µM | 24.8 µM |  |  |
| CC(C)(C)c1ccc(OCCOc2ccc(C(C)(C)C)cc2N)c(N)c1 | > 100 µM | > 100 µM | > 100 µM | > 100 µM | > 100 µM | > 100 µM | > 100 µM | > 100 µM | > 100 µM | > 100 µM |  |  |
| O=C(Nc1ccccc1F)c1cc2ccc(O)cc2oc1=Nc1cccc(F)c1 | 33.8 µM | 84.4 µM | > 100 µM | 98.7 µM | 44.6 µM | 43 µM | 53.6 µM | 62.6 µM |  | 29.8 µM |  |  |
| COc1ccc(N2C(=O)C3c4[nH]c5ccc(OCc6ccccc6)cc5c4C4CCC(c5ccccc5)CC4C3C2=O)cc1 (stereo not drawn) | > 100 µM | 25.8 µM | > 100 µM | 45.6 µM | > 36.8 µM | > 100 µM | 3.04 µM | 68 µM | > 100 µM | 11.2 µM |  |  |
| Oc1cc(Cc2ccccc2)c(Cc2ccccc2)cc1O | > 10 µM | > 10 µM | > 10 µM | > 10 µM | > 10 µM | > 10 µM | > 10 µM | > 10 µM | > 10 µM | > 10 µM |  |  |
| S=C1c2ccc(Cl)cc2-n2cnnc2C2CSCN12 (stereo not drawn) | > 100 µM | > 100 µM | > 100 µM | > 100 µM | > 100 µM | > 100 µM | > 100 µM | > 100 µM | > 100 µM | > 100 µM |  |  |
| N#CN1C2CCC1CC(=O)C2 | > 100 µM | > 100 µM | > 100 µM | > 100 µM | > 100 µM | > 100 µM | > 100 µM | > 100 µM | > 100 µM | > 100 µM |  |  |

| Compound | TGI (HCC-2998 colon) | TGI (HS 578T breast) | TGI (HT29 colon) | TGI (MALME-3M melanoma) | TGI (MOLT-4 leukemia) | TGI (NCI/ADR-RES ovarian) | TGI (OVCAR-4 ovarian) | TGI (SK-MEL-2 melanoma) | TGI (SN12C renal) | TGI (U251 CNS) | GI50 (MALME-3M melanoma) | GI50 (U251 CNS) |
| --- | --- | --- | --- | --- | --- | --- | --- | --- | --- | --- | --- | --- |
| CC(=O)c1c(-c2cccc3ccccc23)c(C#N)c(=S)n(C2OC(CO)C(O)C(O)C2O)c1C (stereo not drawn) | > 100 µM | > 100 µM | > 100 µM | > 100 µM | > 100 µM | > 100 µM | > 100 µM | > 100 µM | > 100 µM | > 100 µM | > 100 µM | > 100 µM and 48.9 µM |
| O=C(O)CN(CC(=O)O)C1CCCCC1N1CC(=O)OC(=O)C1 (stereo not drawn) | > 100 µM | > 100 µM | > 100 µM | > 100 µM | > 100 µM | > 100 µM | > 100 µM | > 100 µM | > 100 µM | > 100 µM |  |  |
| O=C(O)CC(Cc1ccccc1Cl)C(=O)O (stereo not drawn) | > 100 µM | > 100 µM | > 100 µM | > 100 µM | > 100 µM | > 100 µM | > 100 µM | > 100 µM | > 100 µM | > 100 µM |  |  |
| Cc1ccc(S(=O)(=O)NC(=O)Nc2nnc(S(N)(=O)=O)s2)cc1 | > 100 µM | > 100 µM | > 100 µM | > 100 µM | > 100 µM | > 100 µM | > 100 µM | > 100 µM |  | > 100 µM |  |  |
| COc1ccc([C@H]2[C@H]3COC(=O)[C@H]3C(C#N)=C3Sc4ccccc4N32)cc1 | > 100 µM | > 100 µM | 37.7 µM | > 100 µM | > 67.7 µM | > 62.5 µM | > 100 µM | 56.7 µM | 36.4 µM | > 100 µM |  |  |
| CCO/C(=N/S(=O)(=O)C(F)(F)F)N(C(C)C)C(C)C |  | > 100 µM | > 100 µM | > 100 µM | > 100 µM | > 100 µM | > 100 µM | > 100 µM | > 100 µM | > 100 µM |  |  |
| O=C(Nc1ccccc1)N(C1=NCC(CI)S1)c1ccc(F)c(F)c1 (stereo not drawn) | > 100 µM | > 100 µM | > 100 µM | > 100 µM | 61.4 µM | > 100 µM | > 100 µM | 60.5 µM | > 100 µM | > 100 µM |  |  |
| CCN(CCCOc1ccccc1)CCN(CC)CCCOc1ccccc1 | 48.4 µM | 30.4 µM | 27.4 µM | 32 µM | 16.8 µM | 46.8 µM | 37.5 µM | 32.3 µM | 44.8 µM | 27.5 µM |  |  |
| OC1[C@@H]2[C@@H](O)CCCN2C[C@@H](O)[C@H]1O (stereo partly drawn) | > 100 µM | > 100 µM | > 100 µM | > 100 µM | > 100 µM | > 100 µM | > 100 µM | > 100 µM | > 100 µM | > 100 µM |  |  |
| C=CCn1c(=O)c(C)cn(COCCO)c1=O | > 100 µM | > 100 µM | > 100 µM | > 100 µM | > 100 µM | > 100 µM |  | > 100 µM | > 100 µM | > 100 µM |  |  |
| C=CCOC(=O)N1c2ccc(O[Si](C)(C)C(C)(C)C)cc2[C@@]23O[C@@]24[C@@H]1C#C/C=C\C#C[C@]3(O)C(OC)(OC)C[C@@H]4C | > 100 µM | > 89.1 µM | > 100 µM | > 100 µM | > 42.9 µM | > 100 µM | > 100 µM | > 100 µM | > 100 µM | > 100 µM |  |  |
| CCOC(=O)c1ccc(-n2[nH]nc(C(N)=O)c2=O)cc1 | > 100 µM | > 100 µM | > 100 µM | > 100 µM | > 100 µM | > 100 µM | > 100 µM | > 100 µM | > 100 µM | > 100 µM |  |  |
| c1ccc(/C(=N/Nc2nc3ccccc3s2)C2CCCCC2)nc1 | 0.0519 µM | 50 µM | 16.1 µM | 20.9 µM | 27.8 µM | 10.3 µM | 22.3 µM | 32.3 µM | 22.7 µM | 35.9 µM |  |  |
| CCC/C(Cl)=N\OC(=O)Nc1ccc(F)cc1 | 32.4 µM | > 86.4 µM | > 69.6 µM | 20.5 µM | 14.9 µM | > 62.3 µM | 30.8 µM | 34.8 µM | 31 µM | 34.8 µM |  |  |
| Cc1ccc(Nc2nc3[nH]ccc3c(=O)[nH]2)cc1 | > 100 µM | > 100 µM | > 100 µM | > 100 µM | > 100 µM | > 100 µM | > 100 µM | > 100 µM | > 100 µM | > 100 µM |  |  |
